Series [1] can be described thus: Pharmacokinetic analysis after single oral powder-in-capsule dose, dog plasma by LC/MS. The note with it: for AUC0-last / Cmax: Dog, PO, 5 mg/kg; for plasma concentrations relative to free base compound (I) (in words): beagle dogs, oral. The format is in vivo, beagle dogs. The procedure: (§1) A single oral, powder-in-capsule dose of each form was administered to three (n=3) female Sprague-Dawley rats and three male beagle dogs (n=3) at 5 mg active pharmaceutical ingredient per kg body weight. The plasma was then analyzed for compound plasma levels by LC/MS.
(§2) Compound was milled using a mortar and pestle and was carefully dispensed into a gelatin capsule, tared on an analytical balance. Loading continued until the desired compound mass was achieved. Size 9 capsules were used for rat dosing and size 3 capsules were used for dogs. Note: compound load was corrected for the bioequivalence ratio of each form.
(§3) Following oral dosing, blood was drawn from the lateral saphenous vein into lithium heparin coated tubes (rats) or K2EDTA coated tubes (dogs), at designated time points. Plasma was collected and stored frozen at −80° C. until analysis.
Plasma samples (20 μL) and spiked plasma standard samples were diluted eleven fold with ice cold acetonitrile containing 40 ng/mL Diclofenac as internal standard. The mixture was vortexed for 2 min and centrifuged. The 0.5 μL supernatant was injected into a Waters Acquity BEH 1.7 μm 2.1×50 mm column at 0.6 mL/min by an Acquity UPLC. The column was equilibrated with 10% methanol in water. Compounds were eluted with a gradient to 95% methanol. Mobile phases contained 0.025% (v/v) formic acid and 1 mM NH4OAc.
Column eluent was analyzed by an electrospray ionization tandem quadrupole mass spectrometry system (ESI-MS/MS, an API-6500). Eluent composition was analyzed for one ion-pairs specific for the internal standard and one ion-pairs specific for the analyte. Experimental samples were compared with standard curve samples to determine compound concentrations. Pharmacokinetic parameters were determined using WinNonlin Professional 6.2.

Series [2] can be described thus: Solubility (Solubilitymax, pHmax) of crystalline forms. Format: physicochemical.
Series [3] is described as follows: Pharmacokinetic analysis after single oral powder-in-capsule dose, rat plasma by LC/MS. Format: in vivo, Sprague-Dawley rats. As to conditions: for AUC0-last / Cmax: Rat, PO, 5 mg/kg; for plasma concentrations relative to free base compound (I) (in words): Sprague Dawley rats, oral. The method, then:
as §1, §2, §3
Plasma samples (20 μL) and spiked plasma standard samples were diluted five-fold with ice cold acetonitrile containing 100 ng/mL verapamil as internal standard. Samples and standards were filtered through 0.22 μm membranes in a 96-well format. Filtrates were then diluted with water to 30% acetonitrile.
10 μL of each sample and standard was injected onto a Waters Acquity CSH 1.7 μm 2.1×100 mm column at 0.6 mL/min by an Acquity UPLC. The C18 column was equilibrated at 5% acetonitrile in water. Compounds were eluted with a gradient to 99% acetonitrile. All mobile phases contained 0.1% (v/v) formic acid.
Column eluent was analyzed by an electrospray ionization tandem quadrupole mass spectrometry system (ESI-MS/MS, a Waters Xevo TQ). Eluent composition was analyzed for three ion-pairs specific for the internal standard and three ion-pairs specific for the analyte. Experimental samples were compared with standard curve samples to determine compound concentrations. Pharmacokinetic parameters were determined using the Excel plug-in “PKfit”.

The nature of series [4]: Hygroscopicity (water sorption at 90% RH). Format: physicochemical.

Where a name gives a salt, the structure may show the parent alone.

Usually Cmax stands for the peak of the concentration-time curve. In series [1], `Cc1cc(-c2cnn3c(NC[C@H]4C[C@@](C)(O)C4)cc(Oc4cccnc4)nc23)ccc1C(=O)NC1CC1` [Compound (I), N-cyclopropyl-4-(7-((((1s,3s)-3-hydroxy-3-methylcyclobutyl)methyl)amino)-5-(pyridin-3-yloxy)pyrazolo[1,5-a]pyrimidin-3-yl)-2-methylbenzamide] had an AUC0-last of 40 ng·h/mL and a Cmax of 8 ng/mL. The compound further came in with a Solubilitymax in series [2] of less than 1 µg/mL. In addition, in series [3], the AUC0-last stood at 140 ng·h/mL and the Cmax is given as 11 ng/mL. In series [4], the “Hygroscopicity (water sorption at 90% RH)” value is recorded as 0.8%.

As for `Cc1cc(-c2cnn3c(NC[C@H]4C[C@@](C)(O)C4)cc(Oc4cccnc4)nc23)ccc1C(=O)NC1CC1` [Compound (I) bisphosphate hemihydrate], in series [1], the AUC0-last was 4000 ng·h/mL, the Cmax stood at 830 ng/mL and the “plasma concentrations relative to free base compound (I) (in words)” value was “increased plasma concentrations”. Also, in series [2], the Solubilitymax was found to be 100 µg/mL and the pHmax is less than 1.14. Besides, in series [3], the AUC0-last came out at 2100 ng·h/mL, the Cmax is on record as 1120 ng/mL and the “plasma concentrations relative to free base compound (I) (in words)” value is reported as “increased plasma concentrations”. Besides, in series [4], the “Hygroscopicity (water sorption at 90% RH)” value is 3.9%.

As for `Cc1cc(-c2cnn3c(NC[C@H]4C[C@@](C)(O)C4)cc(Oc4cccnc4)nc23)ccc1C(=O)NC1CC1` [Compound (I) hydrobromide], in series [1], the AUC0-last amounted to 2760 ng·h/mL, the Cmax was 570 ng/mL and the “plasma concentrations relative to free base compound (I) (in words)” value is listed as “increased plasma concentrations”. Besides, in series [2], the Solubilitymax was determined as 630 µg/mL and the pHmax amounted to 0.79. Also, in series [3], the AUC0-last worked out at 1640 ng·h/mL, the Cmax was 260 ng/mL and the “plasma concentrations relative to free base compound (I) (in words)” value is “increased plasma concentrations”. For the same compound, the “Hygroscopicity (water sorption at 90% RH)” value in series [4] was found to be 2.3%.

As for `Cc1cc(-c2cnn3c(NC[C@H]4C[C@@](C)(O)C4)cc(Oc4cccnc4)nc23)ccc1C(=O)NC1CC1` [Compound I-monohydrate], the Solubilitymax in series [2] is less than 1 µg/mL.

The record behind these values is patent US11878980B2, “Solid forms of TTK inhibitor” (UNIVERSITY HEALTH NETWORK, priority 2016, dated 2024).
